Assay results taken from patent US7879863B2, “Aniline derivatives” (Ajinomoto Co., Inc., priority 2004, dated 2011).
Marks after values point to notes of the source that are not given here.

Legend:
[1] = system: DSS-induced enteritis model; assay: Efficacy evaluation in DSS-induced enteritis model; assay type: in vivo, female CBA mice; conditions: mice, 5% DSS, relative to non-treatment group = 100%, mean ± standard error
Excerpt: Efficacy evaluation in DSS-induced enteritis model
The dextran sodium sulfate (DSS)-induced enteritis model was subjected to evaluation by a partly-modified methods of Gastroenterology, 98, 694-702 (1990) and Cytokine, 11, 890-896 (1998). A 5 (w/v) % DSS (manufactured by Sigma, MW 5,000) solution was freely taken by female CBA mice (CHARLES RIVER LABORATORIES JAPAN, INC.) for a given period to induce enteritis. A solution of the test compound adjusted to the objective concentration with a 0.5 (w/v) % tragacanth gum (TG) solution was orally administered at 5 mL/kg. Upon autopsy, the length, weight and the like of the large intestine were evaluated and used as an index of the onset of inflammatory enteritis. As a control, a mouse, to which a 0.5 (w/v) % TG solution was orally administered at 5 mL/kg instead of the test compound, was used. The length and weight of the large intestine are expressed as the relative value when the average value of the non-treatment group is 100%. As a Reference Example, the values obtained by oral administration of a positive control drug, salazosulfapyridine, instead of the test compound are shown. […] For testing the significant difference, Dunnett's t-test was used, and statistic significance as shown by P<0.05 and P<0.01 relative to the TG control group is shown in the Table with * and **, respectively.

[2] = system: acetic acid writhing model; assay: Efficacy evaluation in acetic acid writhing model; assay type: in vivo, male ICR mice; conditions: mice, writhing number 5 to 20 min after 0.9% acetic acid i.p., mean ± standard error
Description: Efficacy evaluation in acetic acid writhing model
The acetic acid writhing model was subjected to evaluation according to the method of European Journal of Pharmacology, 352, 47-52 (1998). To be specific, a solution of the test compound adjusted to the objective concentration with a 0.5 (w/v) % tragacanth gum solution was orally administered to male ICR mice (CHARLES RIVER LABORATORIES JAPAN, INC.) at 5 mL/kg, and a 0.9% acetic acid solution adjusted with a physiological saline was intraperitoneally administered 60 min later at 5 mL/kg. The number of writhing for 15 min from 5 min to 20 min after administration of a 0.9% acetic acid solution was counted and taken as the writhing number of the test compound. A mouse, to which a 0.5 (w/v) % tragacanth gum (TG) solution was orally administered at 5 ml/kg instead of the test compound, was used as a control. The suppression rate (%) was calculated by subtracting the relative value of each mouse from the relative value when the average value of the control group is 100%. As a Reference Example, the value obtained by oral administration of a positive control drug, indomethacin, instead of the test compound is shown. […] For testing the significant difference, Dunnett's t-test was used, and statistic significance as shown by P<0.05 and P<0.01 relative to the TG control group is shown in the Table with * and **, respectively.

[3] = biological target: T1, human activated tissue kallikrein (Homo sapiens, UniProt P06870); assay: Measurement of tissue kallikrein inhibitory activity; assay type: biochemical; conditions: activated tissue kallikrein activity (initial rate) inhibited by 50%; substrate D-valyl-L-leucyl-L-arginyl-p-nitroanilide; 37° C.
T1 construct: 6xHis (C); made in house; host or cells: baculovirus / Sf21 insect cells
T1 sequence (P06870 25-262): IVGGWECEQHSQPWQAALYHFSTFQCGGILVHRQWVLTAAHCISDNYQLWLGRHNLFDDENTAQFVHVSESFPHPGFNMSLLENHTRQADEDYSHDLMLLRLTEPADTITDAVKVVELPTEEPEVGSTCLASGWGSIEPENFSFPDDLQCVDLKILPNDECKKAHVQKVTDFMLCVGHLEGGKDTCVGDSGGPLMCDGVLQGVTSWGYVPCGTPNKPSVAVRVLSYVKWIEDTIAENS
Description: Measurement of tissue kallikrein inhibitory activity
Expression and purification of human activated tissue kallikrein was performed according to the method of Angermann (A. Angermann et al., Eur. J. Biochem., 206, 225-233 (1992)). That is, a gene was prepared by adding 6 residues of histidine to the C-terminal side of human pancreas kallikrein gene (D. Fukuchima et al, Biochemistry, 24, 8037-8043 (1985)), and tissue prokallikrein was expressed by a system using a baculovirus-insect cell (Sf21). Purified human tissue kallikrein was obtained from the culture supernatant by purification using a nickel chelate column (Ni-NTA, QIAGEN K. K.), digestion with TPCK trypsin and further nickel chelate column. To a solution (100 μL) of the human activated tissue kallikrein adjusted to 0.0625 μg/mL with an assay buffer (100 mM tris-hydrochloride buffer (pH 8.4) containing 0.2M NaCl, 0.02% Tween 20, and 0.1% PEG 6000) was added an assay buffer (containing 2% DMSO) solution (50 μL) of the test compound adjusted to the objective concentration, and the mixture was incubated at 37° C. for 10 minutes (min=minutes). Then, a 4 mM solution (50 μL) of D-valyl-L-leucyl-L-arginyl-p-nitroanilide hydrochloride (BACHEM AG) adjusted with the assay buffer was added, the absorbance was measured and the reaction rate was determined. As a control, a DMSO solution (50 μL) was added instead of the solution of the test compound. Absorbance was measured at a wavelength of 405 nm at 60 second intervals for 90 min using a Benchmark Plus Microplate Reader (BIO RAD). The negative logarithm value (abbreviated as pIC50) of the test compound concentration when the activated tissue kallikrein activity (initial rate) was inhibited by 50% without addition of the test compound was used as an index of the activated tissue kallikrein inhibitory activity.

Row | Compound | large intestine length (%) ([1]; 10 mg/kg oral) | large intestine weight (%) ([1]; 10 mg/kg oral) | suppression rate (%) ([2]; 3 mg/kg oral) | suppression rate (%) ([2]; 10 mg/kg oral) | suppression rate (%) ([2]; 30 mg/kg oral) | IC50 [3] | large intestine length (%) ([1]; 30 mg/kg oral) | large intestine weight (%) ([1]; 30 mg/kg oral)
1 | CC(C)[C@H](CNC(=O)Cc1ccccn1)Nc1ccc(C(F)(F)F)cc1 [Compound A-8] | 80.4 ± 1.8** % | 130.5 ± 5.28** % | 33.7 ± 10.1* % | 52.7 ± 7.5** % | 63.5 ± 6.6** % | 91.2 nM |  | 
2 | CCN1CCC(O)c2cc(C(F)(F)F)ccc21 (centres unmarked) [Compound E-6] | 85.2 ± 2.4** % | 117.5 ± 5.1** % | 58.7 ± 7.0** % | 58.7 ± 5.8** % | 64.9 ± 8.3** % | 251 nM | 87.9 ± 2.0** % | 110.7 ± 4.1** %
